{
  "source": "ChEMBL document CHEMBL1136051",
  "about": "“Synthesis and antiproliferative activity of a new compound containing an alpha-methylene-gamma-lactone group” (J Med Chem, 2002)",
  "key": {"HL-60 [1]": {"test_system": "HL-60", "assay": "Concentration required for endonucleolytic DNA cleavage in HL-60 cells", "type": "functional, cell-based", "conditions": "Homo sapiens"}, "HL-60 [2]": {"test_system": "HL-60", "assay": "In vitro antiproliferative activity against HL-60 myeloid leukemia HL-60 cells in culture", "type": "functional, cell-based", "conditions": "Homo sapiens"}},
  "data": [
    {"smiles": "C=C1C(=O)O[C@H](CCc2ccc(OC)cc2)[C@H]1C", "values": [
      {"measurement": "Concentration", "setting": "HL-60 [1]", "value": 5, "unit": "µM"},
      {"measurement": "IC50", "setting": "HL-60 [2]", "value": 4, "unit": "µM"}
    ]}
  ]
}
